The record followed here is ChEMBL document CHEMBL4177710, “Bisindolylmethane thiosemicarbazides as potential inhibitors of urease: Synthesis and molecular modeling studies” (Bioorg Med Chem, 2018).

SMILES strings stand for the structures.

Chain of Urease (P07374 whole entry): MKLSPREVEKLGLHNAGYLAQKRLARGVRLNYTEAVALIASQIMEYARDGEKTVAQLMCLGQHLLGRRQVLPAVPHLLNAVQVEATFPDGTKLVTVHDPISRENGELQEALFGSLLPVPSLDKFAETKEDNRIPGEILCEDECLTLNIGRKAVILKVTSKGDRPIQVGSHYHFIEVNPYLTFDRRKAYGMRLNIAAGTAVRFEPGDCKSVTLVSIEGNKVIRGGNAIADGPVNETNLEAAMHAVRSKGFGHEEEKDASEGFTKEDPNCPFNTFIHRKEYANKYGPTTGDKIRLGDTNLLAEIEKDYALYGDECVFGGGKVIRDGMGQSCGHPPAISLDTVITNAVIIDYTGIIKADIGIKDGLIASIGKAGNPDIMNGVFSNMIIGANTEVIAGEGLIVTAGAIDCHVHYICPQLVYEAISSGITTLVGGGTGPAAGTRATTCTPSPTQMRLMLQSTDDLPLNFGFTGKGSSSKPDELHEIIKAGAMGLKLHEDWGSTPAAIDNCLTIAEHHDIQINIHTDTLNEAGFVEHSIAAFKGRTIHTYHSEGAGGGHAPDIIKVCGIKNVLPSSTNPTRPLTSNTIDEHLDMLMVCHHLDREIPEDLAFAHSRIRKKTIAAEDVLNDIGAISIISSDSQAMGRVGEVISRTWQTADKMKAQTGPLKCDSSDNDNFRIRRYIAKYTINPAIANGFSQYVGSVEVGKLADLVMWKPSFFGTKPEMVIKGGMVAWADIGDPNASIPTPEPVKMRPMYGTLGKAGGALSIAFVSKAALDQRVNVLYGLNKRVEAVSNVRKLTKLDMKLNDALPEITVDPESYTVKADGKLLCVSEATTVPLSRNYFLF

This assay addresses Urease (Canavalia ensiformis, UniProt P07374). Nature of the assay: Inhibition of jack bean urease assessed as reduction in ammonia production using urea as substrate after 15 mins by indophenol method.
For `Cc1ccc(C(c2c[nH]c3ccc(C(=O)NNC(=S)Nc4ccccc4Br)cc23)c2c[nH]c3ccc(C(=O)NNC(=S)Nc4ccccc4Br)cc23)cc1`, the IC50 (commonly the concentration that inhibits the measured activity by half) amounted to 2.5 µM.

Regarding `Cc1ccc(C(c2c[nH]c3ccc(C(=O)NNC(=S)NC45CC6CC(CC(C6)C4)C5)cc23)c2c[nH]c3ccc(C(=O)NNC(=S)NC45CC6CC(CC(C6)C4)C5)cc23)cc1` (stereo not drawn), the half-inhibitory concentration (IC50) worked out at 18.5 µM. Take `Cc1ccc(C(c2c[nH]c3ccc(C(=O)NNC(=S)Nc4cccc(C)c4)cc23)c2c[nH]c3ccc(C(=O)NNC(=S)Nc4cccc(C)c4)cc23)cc1`: the IC50 stood at 5.1 µM.

Turning to `COc1ccccc1NC(=S)NNC(=O)c1ccc2[nH]cc(C(c3ccc(C)cc3)c3c[nH]c4ccc(C(=O)NNC(=S)Nc5ccccc5OC)cc34)c2c1`, the IC50 stood at 8.4 µM. In the case of `Cc1ccc(C(c2c[nH]c3ccc(C(=O)NNC(=S)Nc4ccccc4C)cc23)c2c[nH]c3ccc(C(=O)NNC(=S)Nc4ccccc4C)cc23)cc1` it was 3.3 µM.

Consider `Cc1ccc(C(c2c[nH]c3ccc(C(=O)NNC(=S)Nc4cccc(F)c4)cc23)c2c[nH]c3ccc(C(=O)NNC(=S)Nc4cccc(F)c4)cc23)cc1`, for which the IC50 was 0.98 µM. In the case of `Cc1ccc(C(c2c[nH]c3ccc(C(=O)NNC(=S)Nc4cccc(Br)c4)cc23)c2c[nH]c3ccc(C(=O)NNC(=S)Nc4cccc(Br)c4)cc23)cc1` it was 1.8 µM; in that of `Cc1ccc(C(c2c[nH]c3ccc(C(=O)NNC(=S)Nc4ccc(Br)cc4)cc23)c2c[nH]c3ccc(C(=O)NNC(=S)Nc4ccc(Br)cc4)cc23)cc1`, 1.3 µM; in that of `Cc1ccc(C(c2c[nH]c3ccc(C(=O)NNC(=S)Nc4ccc(F)cc4)cc23)c2c[nH]c3ccc(C(=O)NNC(=S)Nc4ccc(F)cc4)cc23)cc1`, 1.1 µM. As to `Cc1ccc(C(c2c[nH]c3ccc(C(=O)NNC(=S)Nc4cccc([N+](=O)[O-])c4)cc23)c2c[nH]c3ccc(C(=O)NNC(=S)Nc4cccc([N+](=O)[O-])c4)cc23)cc1`, the IC50 amounted to 7.6 µM. As for `Cc1ccc(C(c2c[nH]c3ccc(C(=O)NNC(=S)Nc4ccc(Cl)cc4)cc23)c2c[nH]c3ccc(C(=O)NNC(=S)Nc4ccc(Cl)cc4)cc23)cc1`, the IC50 is 2.75 µM. Turning to `Cc1ccc(C(c2c[nH]c3ccc(C(=O)NNC(=S)Nc4ccc(Cl)c(Cl)c4)cc23)c2c[nH]c3ccc(C(=O)NNC(=S)Nc4ccc(Cl)c(Cl)c4)cc23)cc1`, the IC50 amounted to 0.14 µM. For `Cc1ccc(C(c2c[nH]c3ccc(C(=O)NNC(=S)Nc4ccccc4F)cc23)c2c[nH]c3ccc(C(=O)NNC(=S)Nc4ccccc4F)cc23)cc1`, the IC50 was found to be 0.8 µM.

As for `COc1cccc(NC(=S)NNC(=O)c2ccc3[nH]cc(C(c4ccc(C)cc4)c4c[nH]c5ccc(C(=O)NNC(=S)Nc6cccc(OC)c6)cc45)c3c2)c1`, the IC50 stood at 12.1 µM. Then `Cc1ccc(NC(=S)NNC(=O)c2ccc3[nH]cc(C(c4ccc(C)cc4)c4c[nH]c5ccc(C(=O)NNC(=S)Nc6ccc(C)cc6)cc45)c3c2)cc1`, with 4.2 µM; and `Cc1ccc(C(c2c[nH]c3ccc(C(=O)NNC(=S)Nc4ccccc4Cl)cc23)c2c[nH]c3ccc(C(=O)NNC(=S)Nc4ccccc4Cl)cc23)cc1`, with 1.2 µM; and `Cc1ccc(C(c2c[nH]c3ccc(C(=O)NNC(=S)Nc4ccc([N+](=O)[O-])cc4)cc23)c2c[nH]c3ccc(C(=O)NNC(=S)Nc4ccc([N+](=O)[O-])cc4)cc23)cc1`, with 9.5 µM. Consider `Cc1ccc(C(c2c[nH]c3ccc(C(=O)NNC(=S)Nc4ccc(C(F)(F)F)cc4)cc23)c2c[nH]c3ccc(C(=O)NNC(=S)Nc4ccc(C(F)(F)F)cc4)cc23)cc1`, for which the IC50 amounted to 0.5 µM.
